Data on 37 compounds can be found in the Deep4Chem optical property database.

The nature of the data set: solvent given as SMILES.

`CCCCCCCCCCCCOc1cc2c3cc(OCCCCCCCCCCCC)c(OCCCCCCCCCCCC)cc3c3c(cc(OCCCCCCCCCCCC)c4nc5cc(C#Cc6ccc(CCCCCCCCCC)cc6)c(C#Cc6ccc(CCCCCCCCCC)cc6)cc5nc43)c2cc1OCCCCCCCCCCCC` showed an emission maximum (in ClC(Cl)Cl) of 663 nm.
As to `CC/[NH+]=c1\cc2oc3cc(NCCO)c4ccccc4c3nc-2cc1C`, the emission maximum is 643 nm (in CCO) and 651 nm (in O).
`CCCCC(CC)COc1ccc2nc(-c3ccc(-c4c(C)noc4C)s3)sc2c1` (configuration not stated) returned an emission maximum (in ClCCl) of 415 nm.
As for `F[B-]1(F)OC(c2ccccc2)=C(c2ccccc2)c2sc3ccccc3[n+]21`, the emission maximum (in C1CCOC1) worked out at 446 nm.
Regarding `FC(F)(F)c1cc2n(n1)[B-](c1ccccc1)(c1ccccc1)[n+]1ccc3ccccc3c1-2`, the emission maximum runs as follows: (in C1CCCCC1) 410 nm; (in Cc1ccccc1) 410 nm; (in ClCCl) 404 nm.
For the compound `Cn1cccc1-c1ccc(C#N)cc1`, the emission maximum is, setting by setting: (in C1CCOC1) 383 nm; (in CC#N) 407 nm; (in CCCCCC) 357 nm; (in CCCCOCCCC) 367 nm; (in CCOCC) 371 nm.
As for `C(=C\c1ncc(-c2ccc(OCc3ccccc3)c(OCc3ccccc3)c2)o1)/c1cccc(N2CCCC2)c1`, for the setting “in ClCCl”, the emission maximum came out at 485 nm.
The compound `COc1ccc(-c2cc3c(s2)c(-c2ccccc2)cc(=O)n3C)cc1` gave an emission maximum (in CC#N) of 435 nm and an emission maximum (in ClCCl) of 437 nm.
The compound `COc1cccc2cc(C#N)c(=N)oc12` had an emission maximum (in ClCCl) of 462 nm.
With `CCCCCCCCCCCCN1C(=O)c2c(c3ccc4cc(-c5ccc(C(F)(F)F)cc5)c(OC)cc4c3c3c2ccc2cc(-c4ccc(C(F)(F)F)cc4)c(OC)cc23)C1=O`, the emission maximum (in ClCCl) was found to be 522 nm.
As for `COc1ccc2c3ccc(OC)cc3n(-c3ccc(-c4nnc(-c5c(C(C)C)cc(C(C)C)cc5C(C)C)o4)cc3)c2c1`, the emission maximum (in Cc1ccccc1) stood at 437 nm.
Take `O=c1c2cc(F)ccc2nc2n1[B-](F)(F)[n+]1ccccc1-2`: the emission maximum worked out at 437 nm (in CC#N) and 438 nm (in ClCCl).
`Fc1ccc2c(c1)sc1nc(-c3ccccc3)sc12`: the emission maximum (in CS(C)=O) turned out to be 407 nm.
Under “in O”, `CCOC(=O)c1c(CSc2ccccc2)n(C)c2cc(Br)c(O)c(CN(C)C)c12` showed an emission maximum of 350 nm.
In the case of `F[B-]1(F)Oc2ccccc2-c2cc(-n3c4ccccc4c4ccccc43)cc[n+]21`, the emission maximum runs as follows: (in Cc1ccccc1) 449 nm; (in O=P(c1ccccc1)(c1ccccc1)c1ccccc1Oc1ccccc1P(=O)(c1ccccc1)c1ccccc1) 475 nm.
Take `CCn1c2ccccc2c2c(N(c3ccccc3)c3ccccc3)cccc21`: the emission maximum (in ClCCl) came to 418 nm.
`CCCCCCCCCCOc1cc(OCCCCCCCCCC)cc(C2=C3C(/C=C/c4ccc(N(C)C)cc4)=C(C#Cc4ccc(C(C)(C)C)cc4)C(/C=C/c4ccc(N(C)C)cc4)=[N+]3[B-](F)(F)n3c(/C=C/c4ccc(N(C)C)cc4)c(C#Cc4ccc(C(C)(C)C)cc4)c(/C=C/c4ccc(N(C)C)cc4)c32)c1`: under “in ClC(Cl)Cl”, the emission maximum is given as 835 nm.
In the case of `CC(C)c1ccc2ccc3cccc4ccc1c2c34`, the emission maximum worked out at 376 nm (in CCCCCC), 376 nm (in CO) and 377 nm (in ClCCl).
Take `N#Cc1cc(C#N)c(-c2cc(-n3c4ccccc4c4ccccc43)cc(-n3c4ccccc4c4ccccc43)c2)cc1-c1cc(-n2c3ccccc3c3ccccc32)cc(-n2c3ccccc3c3ccccc32)c1`: the emission maximum (in Cc1ccccc1) was 372 nm.
`F[B-]1(F)n2c(-c3ccccc3)cc(-c3ccccn3)c2N=C2C(c3ccccn3)=CC(c3ccccc3)=[N+]21` had an emission maximum (in CC#N) of 682 nm.
For the compound `CN(C)c1ccc(C(=O)Nc2cccc(Br)c2)cc1`, the emission maximum reads like this: (in C1CCCCC1) 338 nm; (in C1CCOC1) 455 nm; (in CC#N) 496 nm; (in CCOCC) 445 nm.
Turning to `Cc1c(COC(=O)c2ccccc2)n2c(OCC(=O)c3ccccc3)c(C)c(=O)n2c1=O`, for the setting “in CCO”, the emission maximum was 457 nm.
Regarding `N#CC(C#N)=Cc1ccc(-c2ccc(-c3nc4ccccc4s3)c(O)c2)o1`, the emission maximum came out at 501 nm (in CCO), 502 nm (in ClCCl) and 596 nm (in O).
For the compound `COc1ccc(-c2cnc3nn4ccccc4c3n2)cc1`, the emission maximum (in C1CCOC1) was 455 nm.
`O=c1c(Nc2ccccc2)c([O-])c1=[NH+]c1ccccc1` came in with an emission maximum (in C1CCOC1) of 477 nm; an emission maximum (in CC#N) of 496 nm; an emission maximum (in CC(C)=O) of 490 nm; an emission maximum (in CCO) of 492 nm; an emission maximum (in CCOCC) of 484 nm; an emission maximum (in CN1CCCC1=O) of 495 nm. Moreover, the emission maximum was 502 nm (in CN(C)C=O), 498 nm (in CO), 504 nm (in CS(C)=O) and 504 nm (in O).
Consider `COc1ccc(-c2cnc3nn4ccccc4c3c2)cc1`, for which the emission maximum (in C1CCOC1) is recorded as 423 nm.
Compound `Nc1ccc2c(-c3ccc(Br)cc3)c3ccc(=[NH2+])cc-3oc2c1` yielded an emission maximum (in CCO) of 532 nm.
Regarding `[NH3+]c1ccc2c(c1)Cc1ccccc1-2`, for the setting “in O”, the emission maximum is on record as 314 nm.
`Cc1ccc(/C=C/c2nc3ccccc3s2)cc1`: the emission maximum is, setting by setting: (in C1CCCCC1) 390 nm; (in CO) 405 nm.
For `COC(=O)c1ccc(C2=C3C=c4sc(-c5cccs5)cc4=[N+]3[B-](F)(F)n3c2cc2sc(-c4cccs4)cc23)cc1`, the emission maximum (in ClCCl) was 716 nm.
`O=C1c2cc(-n3c4ccccc4c4ccccc43)ccc2S(=O)(=O)c2ccc(-n3c4ccccc4c4ccccc43)cc21`: the emission maximum amounted to 592 nm (in C1CCOC1); 484 nm (in CCCCCC); 546 nm (in Cc1ccccc1); 606 nm (in ClC(Cl)Cl); 614 nm (in ClCCl).
`CC(C)c1cccc(C(C)C)c1N1C(=O)c2ccc3cc4c(cc5ccc6c7c(ccc4c57)C(=O)N(c4c(C(C)C)cccc4C(C)C)C6=O)c4ccc(c2c34)C1=O`: the emission maximum (in ClCCl) came to 668 nm.
For `CCn1c2ccccc2c2cc(C#Cc3cc(C#Cc4ccc5c(c4)c4ccccc4n5CC)ncn3)ccc21`, the emission maximum was determined as 451 nm (in C1CCOC1); 445 nm (in CCOC(C)=O); 502 nm (in CN(C)C=O); 411 nm (in Cc1ccccc1); 484 nm (in ClCCl).
Take `CC1=NN(c2ccccc2)C(=O)/C1=C/c1cn(-c2ccccc2)nc1-c1ccccc1`: the emission maximum by setting is: (in C1CCOC1) 429 nm; (in C1COCCO1) 407 nm; (in CCO) 427 nm; (in CCOC(C)=O) 422 nm; (in CN(C)C=O) 435 nm; (in CO) 430 nm. The emission maximum (in CS(C)=O) is 437 nm, the emission maximum (in Cc1ccccc1) is 416 nm, the emission maximum (in ClC(Cl)Cl) was 432 nm and the emission maximum (in ClCCl) worked out at 436 nm.
For the compound `Cc1ccc(C(=O)/N=c2\oc3cccc4c5c(-c6ccccc6)oc6cccc(c(c2-c2ccccc2)c34)c65)cc1`, under “in ClC(Cl)Cl”, the emission maximum is recorded as 535 nm.
For the setting “in C1CCOC1”, `CC(C)(C)c1ccc(C2=C(c3ccc(C(C)(C)C)cc3)[Si](c3ccccc3)(c3ccccc3)c3ccccc32)cc1` came in with an emission maximum of 447 nm.
In the case of `CCCCCCn1c2ccccc2c2cc(/C=C/c3cc(=O)oc4cc(C)ccc34)ccc21`, the emission maximum by setting is: (in CS(C)=O) 542 nm; (in ClC(Cl)Cl) 504 nm.
